From patent US6551815B1, “In situ denitrification” (University of New Mexico, priority 1997, dated 2003)
Where “and” joins values, the source holds several entries; their conditions need not be identical. Equal entries are not always repeated. Entries after “also recorded” stand apart in the source; their conditions may differ. Where two headings read alike, the source gives them in different places. Values belong to the compound of their own block, whether it stands above or below them.

How the values were obtained:
[1] = system: indigenous denitrifying bacteria naturally present in the groundwater; test: Serum bottle denitrification of Tuba City groundwater amended with carbon and phosphorus sources; type: cell-based; conditions: for concentration (as high as) at which activity of denitrifiers was not inhibited: initial nitrate about 21 mM
Protocol: In situ biological denitrification was studied as a groundwater remediation process with nitrogen as the final product at an UMTRA site in Tuba City, Ariz. Nitrate contaminated groundwater and soil from the contaminated field site were used, and in all experiments the initial nitrate concentration was about 1300 mg/L and the pH was 7.5-8. Denitrification was studied in a 2.5 L fermentor and in 120 mL serum bottles using a water to soil ratio of 100 mL/8 g and indigenous denitrifying bacteria naturally present in the groundwater. Oxygen was removed initially by purging with argon for 15 minutes. […] Nitrate, nitrite, carbon source, and pH changes were monitored during denitrification. Eh was indicated using a resazurin dye. […] For each carbon source, the stoichiometric equation is present, and a theoretical yield coefficient was determined from each stoichiometric equation.
The water samples were kept in 1000 mL plastic bottles and reserved in a refrigerator.
Chemicals used for phosphorus amendment included orthophosphate KH2PO4, trimetaphosphate Na3P3O9 (Sigma Co.) and polyphosphate (NaPO3)n (Aldrich Co.). All chemicals were A.C.S. reagent grade. Crushed sands were prepared by pulverizing the core samples (about 47 to 100 feet depth) from the Tuba City site using a pestle and mortar. This Navajo sandstone is a fine to fine grained unit with median grain size diameter (d50) about 0.11 mm. The sandstone was kept without contamination by organic chemicals.
(§1) Stock solution mixtures with neutral pH and total volume less than 15 mL for denitrification amendment, including carbon source and phosphorus sources, 0.05 mL of a 0.2% resazurin solution (redox potential indicator), and 8 g crushed sand for part experiments, were added into a 160 mL serum bottle, which was then autoclaved at 121° C. (250° F.) for 20 min. Groundwater sample was added under aseptic environment after the bottle cooled down, and the serum bottle was sealed with a butyl rubber stopper and crimped with an aluminum seal. Total volume of the liquid was about 100 to 120 mL. The solution was then purged with argon gas through a 22 gauge long needle for 15 min to ensure that an anaerobic environment was maintained, and another needle was used for gas exhaustion at the same time. The exhaustion needle was taken out before the spinal needle was done, and the serum bottle was pressurized under 7-10 psig. To keep the gas phase sterile, a gas filter with 0.2 μm pore size was used. Serum bottles were kept either at room temperature about 23±1° C. and shaken 2 to 3 times every day or kept at 16° C. in a Lindberg/Blue M constant temperature refrigerated shaker waterbath model RSWB3222A (A General Signal Company, NC). No denitrifying bacteria were inoculated to water samples, and pH was not controlled for all of the experiments. Denitrification process via the activity of the indigenous denitrifiers present in the groundwater was monitored. Disposable syringes were used for sampling.
The IC unit, Dionex DX 500 chromatography system (Dionex Co., CA), consists of a GP 40-1 gradient pump, an ED 40-1 electrochemical detector, and a LC 10-2 chromatography organizer with an lonpac AS 11 analytical column (4 mm) and an ASRS-1 (4 mm) anion self-regenerating suppresser as its main components. This lonpac AS 11 4-mm analytical column with functional group of alkanol quaternary ammonium is designed to resolve a number of inorganic anions and organic acid anions from a single sample injection in one gradient run using hydroxide eluent systems such as NaOH used in our experiment.

[2] = Phosphate precipitation in amended groundwater (serum bottles); type: physicochemical; conditions: for calcium phosphate precipitation as compared to orthophosphate: Tuba City groundwater
Protocol: as §1, with “The solution was then purged with argon gas through a 22 gauge long needle for 15 min to ensure that an anaerobic environment was maintained, and another needle was used for gas exhaustion at the same time.” left out
Triple serum bottle experiments were run in parallel at room temperature about 23±1° C.

[3] = system: indigenous bacteria; test: Batch denitrification of Mountainview groundwater; type: cell-based
[4] = complete = <1 mg/L for N, core sand, KH2PO4, 23±1° C.
[5] = groundwater with core sand, KH2PO4 100 mg/L, 23±1° C.
[6] = serum bottles purged with argon

Compound: CO [Methanol, methanol]
minimum C/N molar ratio for complete denitrification [1, 4]: 1 | C/N molar ratio for nearly complete denitrification (Table 5) [1, 5]: 1.000 | C/N molar ratio, minimum for nearly complete denitrification [1, 5]: 1.000 | concentration (as high as) at which activity of denitrifiers was not inhibited [1]: 45 mM

calcium phosphate precipitation as compared to orthophosphate [2]: reduced calcium phosphate precipitation
Compound: polyphosphate
phosphate precipitate observed in groundwater ([2]; acetate and polyphosphate, no core sand, without purging with argon): Phosphate precipitate was not found; also recorded: White precipitates were not found until a week later | phosphate precipitate observed in groundwater [2, 6]: precipitate was found right after purging with argon; also recorded: white precipitates appeared while purging with argon

Compound: O=P(O)(O)O [orthophosphate, reference compound]
phosphate precipitate observed in groundwater [2, 6]: Precipitate of orthophosphate (0.7-0.8 mM) formed

Compound: CCO [Ethanol, ethanol]
minimum C/N molar ratio for complete denitrification [1, 4]: 1.083 | C/N molar ratio for nearly complete denitrification (Table 5) [1, 5]: 1.083 | C/N molar ratio, minimum for nearly complete denitrification [1, 5]: 1.083 | concentration (as high as) at which activity of denitrifiers was not inhibited [1]: 25 mM | denitrification time ([1]; orthophosphate, whole group of experiments finished, FIG. 5(f)): about 3.5 weeks | time at which nitrate reduction completed or stopped ([1]; polyphosphate 100 mg NaPO3/L, core sand, argon purge, 23±1° C., ethanol insufficient for complete denitrification): about 30 days

calcium phosphate precipitation as compared to orthophosphate [2]: reduced calcium phosphate precipitation
Compound: O=P1([O-])OP(=O)([O-])OP(=O)([O-])O1.[Na+].[Na+].[Na+] [TMP, trimetaphosphate]
phosphate precipitate observed in groundwater [2, 6]: No phosphate precipitate was found in three weeks; also recorded: No phosphate precipitate was found while purging with argon, even in two weeks | denitrification via indigenous bacteria ([3]; groundwater amended with potassium acetate and 20 mg TMP/L): worked successfully | time to complete denitrification ([1]; TMP 100 mg NaPO3/L and acetate, with sand, 16° C.): 28 days | denitrification time longer than with orthophosphate ([1]; TMP and acetate, with sand, 16° C.): 11 days

Compound: CC(O)C(=O)[O-].[Na+] (stereo not shown) [Lactate, sodium lactate]
minimum C/N molar ratio for complete denitrification [1, 4]: 2 | C/N molar ratio for nearly complete denitrification (Table 5) [1, 5]: 2.000 | C/N molar ratio, minimum for nearly complete denitrification [1, 5]: 2.000

Compound: CC(=O)[O-].[K+] [Acetate, potassium acetate]
denitrification via indigenous bacteria ([3]; potassium acetate without TMP): did not work | C/N molar ratio for nearly complete denitrification (Table 5) [1]: 1.425 | C/N molar ratio, minimum for nearly complete denitrification [1]: 1.425 | Denitrification efficiency [1]: 0% and 7-10% | minimum C/N molar ratio for complete denitrification [1]: 1.425 | nitrate reduced after two months [1]: 5%
